{
  "source": "patent US6630124B1",
  "about": "“Combination therapy with VIP antagonist” (Ramot-University Authority for Applied Research and …, priority 1998, dated 2003)",
  "key": {"[1]": {"test_system": "NCI-H727 non-small cell lung cancer (carcinoid)", "assay": "MTS cell proliferation assay, SNH and chemotherapy", "type": "cell-based", "conditions": "8 μM SNH, 6 hour incubation, then 66 hour fresh medium", "protocol": "NCI-H727 and LNCaP were grown in RPMI 1640 medium supplemented with 10% heat inactivated FCS, L-glutamine and antibiotics. HT-29 and CT-26 were grown in DMEM medium supplemented with 10% heat-inactivated FCS (fetal calf serum), L-glutamine and antibiotics. The cells were cultured in 5% CO2/95% air at […] and used during their exponential growth phase. Routinely, the cells which are adherent, were split when a subconfluent monolayer was formed. In different experiments, various concentration of FCS were used. For growth inhibition experiments, subconfluent adherent cells were washed with PBS and treated with trypsin/versene. The cells were pelleted and resuspended in medium to a final concentration of 75,000 cells/mL for NCI-H727. 50,000 cells/mL for LNCaP and HT-29 and 25000 cells/mL for CT-26. These different concentrations were used in order to avoid confluence in the wells at the end of the experiment and correspond to the different doubling times of the cell lines. On day 0, cells suspensions […] were dispensed using a multi-channel pipet into the individual wells of a 96-well tissue culture plate (Nuncion, Nunc Brand Products). […] Cells were incubated for 24 hours in a humidified atmosphere of 95% air/5% CO2 at 37° C. before treatment. On day 1, the cells were treated with different drugs and schedules and maintained under the same conditions. On day 4, viable cell number was determined by a modified MTT assay i.e., MTS non-radioactive cell proliferation assay (Promega). […] Results were finally expressed as percentage of the control, which was obtained from the samples with no drug treatment. Dose-response curves were plotted using a Sigma-Plot software and statistically analyzed using Student test. To determine the effect of the lipophilic VIP antagonist SNH on cell proliferation, cells plated in 96-well microplates for 24 hours as described, were treated with various concentrations of SNH. The peptide was diluted in PBS and […] of the peptide solution was added to each well for a final concentration of the peptide between 10^−510^−9 M. The solvent was added to the control wells. […] A dose-response curve was obtained at concentrations ranging from 2 μM-10 μM (see, FIG. 2). […] The effects of an 8 hours treatment were slightly less, showing that most of the effect is in the initial hours of exposure and much more dose than time dependent. […] For the experiments with the combinations of VIP antagonists and chemotherapeutic agents, on day 0, the cells were plated for 24 hours in medium supplemented with 5% FCS. On day 1, the peptide was added to the wells followed 1 hour later by the chemotherapeutic agents. […] The chemotherapeutic drugs were tested over 7 concentrations, covering as much as possible of the dose response curve of each individual drug. 24 hours later, the medium was exchanged and the cells incubated under the same conditions for another 48 hours. On day 4 the number of viable cells was determined by MTS assay."}, "[2]": {"test_system": "nonsmall cell lung cancer line", "conditions": "2 mM of the antagonist", "procedure": "Assays were performed with cell lines derived from colon cancer and prostate cancer. Proliferation was assessed using the MTS colorimetric assay of mitochondrial function for living cells. The VIP antagonist (stearyl-Nle17-neurotensis 6-11 VIP 7-28) was used."}, "glioblastoma cell lines": {"test_system": "glioblastoma cell lines", "assay": "MTT assay, glioblastoma proliferation", "type": "cell-based", "source_text": "(§1) The effects of VIP receptor antagonists on glioblastoma cell lines were investigated."}, "[3]": {"test_system": "VIP receptor (glioblastoma cells)", "assay": "cAMP in glioblastoma cells, basal and VIP-stimulated", "type": "cell-based", "source_text": "as §1"}, "cancer cells": {"test_system": "cancer cells", "assay": "MTS cell proliferation assay, inhibition of cell growth by SNH", "type": "cell-based", "source_text": "For growth inhibition experiments, subconfluent adherent cells were washed with PBS and treated with trypsin/versene. The cells were pelleted and resuspended in medium to a final concentration of 75,000 cells/mL for NCI-H727. 50,000 cells/mL for LNCaP and HT-29 and 25000 cells/mL for CT-26. These different concentrations were used in order to avoid confluence in the wells at the end of the experiment and correspond to the different doubling times of the cell lines.\nOn day 0, cells suspensions […] were dispensed using a multi-channel pipet into the individual wells of a 96-well tissue culture plate (Nuncion, Nunc Brand Products). […] Cells were incubated for 24 hours in a humidified atmosphere of 95% air/5% CO2 at 37° C. before treatment. […]\nOn day 4, viable cell number was determined by a modified MTT assay i.e., MTS non-radioactive cell proliferation assay (Promega). Briefly, […] of freshly prepared MTS/PMS solution was added to each individual well and after 1-3 hours of incubation (the optimal time was determined for each cell line) absorbance at 490 nm was measured using a multiscan plate reader. Results were finally expressed as percentage of the control, which was obtained from the samples with no drug treatment. Dose-response curves were plotted using a Sigma-Plot software and statistically analyzed using Student test. […]"}},
  "note": "Where a SMILES comes first, the peptide text is derived from it. [ ]: non-standard residue; d: D form. The star is where a group is joined. Stearoyl = CCCCCCCCCCCCCCCCCC(=O)*; Nle = CCCC[C@H](N)C(=O)O",
  "data": [
    {"molecule": "CCCCCCCCCCCCCCCCCC(=O)N[C@@H](CCCCN)C(=O)N1CCC[C@H]1C(=O)N[C@@H](CCCNC(=N)N)C(=O)N[C@@H](CCCNC(=N)N)C(=O)N1CCC[C@H]1C(=O)N[C@@H](Cc1ccc(O)cc1)C(=O)N[C@H](C(=O)N[C@@H](CC(=O)O)C(=O)N[C@@H](CC(N)=O)C(=O)N[C@@H](Cc1ccc(O)cc1)C(=O)N[C@H](C(=O)N[C@@H](CCCNC(=N)N)C(=O)N[C@@H](CC(C)C)C(=O)N[C@@H](CCCNC(=N)N)C(=O)N[C@@H](CCCCN)C(=O)N[C@@H](CCC(N)=O)C(=O)N[C@@H](CCCC)C(=O)N[C@@H](C)C(=O)N[C@H](C(=O)N[C@@H](CCCCN)C(=O)N[C@@H](CCCCN)C(=O)N[C@@H](Cc1ccc(O)cc1)C(=O)N[C@@H](CC(C)C)C(=O)N[C@@H](CC(N)=O)C(=O)N[C@@H](CO)C(=O)N[C@H](C(=O)N[C@@H](CC(C)C)C(=O)N[C@@H](CC(N)=O)C(N)=O)[C@@H](C)CC)C(C)C)[C@@H](C)O)[C@@H](C)O", "note": "[SNH] (Stearoyl-KPRRPYTDNYTRLRKQ[Nle]AVKKYLNSILN-NH2)", "values": [
      {"measurement": "reduction in viable cells", "setting": "[1]", "value": 40, "unit": "%"},
      {"measurement": "growth inhibition", "setting": "[2]", "value": "15-20%"},
      {"measurement": "effect on basal proliferation", "setting": "glioblastoma cell lines; 1 μM", "value": "little effect"},
      {"measurement": "interaction with Taxol to inhibit growth", "setting": "glioblastoma cell lines; 1 μM (SN)VIPhybrid with Taxol", "value": "synergistically interacted"},
      {"measurement": "order of peptide potency, inhibition of VIP-stimulated cAMP", "setting": "[3]; 10 nM VIP", "value": "(SN)VIPhybrid>VIP hybrid >PTC4495"},
      {"measurement": "effect on basal cAMP", "setting": "[3]; 1 μM", "value": "no effect"},
      {"measurement": "inhibition of the increase in cAMP caused by 10 nM VIP", "setting": "[3]; 1 μM, 10 nM VIP", "value": "strongly inhibited"},
      {"measurement": "inhibition of the growth of cancer cells", "setting": "cancer cells; 10 mM of SNH", "value": "significantly inhibits"},
      {"measurement": "death of the cancer cells", "setting": "cancer cells; 8-10 mM SNH, FCS lower than 2%", "value": "complete or almost complete death"}
    ]}
  ]
}
